Experimental data taken from patent publication US5081118A, “Benzothiazine dioxide derivatives” (Pfizer Inc., priority 1990, dated 1992).
≈ marks a conversion by molar mass, not a printed value.

How the values were obtained:
[1] = physchem; conditions: water
[2] = test system: carrageenin-induced rat foot edema; test: standard carrageenin-induced rat foot edema test, oral; type: in vivo; conditions: 32 mg./kg. oral (gavage), carrageenin-injected hind paw, 3 h after carrageenin, vs vehicle control, read-out: % Inhibition of edema formation
Protocol: In this test, anti-inflammatory activity is determined as the percent inhibition of edema formation in the hind paw of male albino rats (weighing 150-190 g.) in response to a sub-plantar injection of carrageenin. The carrageenin is injected as a 1% aqueous suspension (0.05 ml.) one hour after oral administration of the drug, which is normally given in the form of an aqueous solution. Edema formation is then assessed by measuring the volume of the injected paw initially as well as three hours after the carrageenin injection. The increase in volume three hours after carrageenin injection constitutes the individual response. Compounds are considered active if the difference in response between the drug-treated animals (six rats/group) and a control group receiving the vehicle alone is significant on comparison with the results afforded by a standard compound like phenylbutazone at 33 mg./kg., via the oral route of administration.
The following oxyethyl oxicam final products of Examples 1B, 1C and 5, respectively, were tested for anti-inflammatory activity in rats, using the standard rat foot edema test, according to the general procedure described by C. A. Winter et al., as first reported in the Proceedings of the Society for Experimental Biology and Medicine, Vol. 111, p. 544 (1962).

[3] = compared with piroxicam at an equivalent dose level and other NSAI agents

SMILES	solubility [1] [mg/mL]	inhibition at 32 mg/kg [2] [%]	oral absorption potential, comparison in words [3]
CC(C)Cc1ccc(C(C)C(=O)O)cc1 (centres unmarked) [Ibuprofen]	0.3 (≈ 1.45 mM)		
COc1ccc2c(c1)c(CC(=O)O)c(C)n2C(=O)c1ccc(Cl)cc1 [Indomethacin]	0.7 (≈ 1.96 mM)		
CN1C(C(=O)Nc2ccccn2)=C(O)c2ccccc2S1(=O)=O [Piroxicam, 4-hydroxy-2-methyl-N-(2-pyridinyl)-2H-1,2-benzothiazine-3-carboxamide 1,1-dioxide]	26.5 (≈ 80 mM)		
CN1C(C(=O)Nc2ccccn2)=C(OCCO)c2ccccc2S1(=O)=O [Product of Example 1B, 4-(2-hydroxyethyloxy)-2-methyl-N-(2-pyridinyl)-2H-1,2-benzothiazine-3-carboxamide 1,1-dioxide]	470 (≈ 1250 mM)	48	highest oral absorption potential seen in the series of compounds tested
CN1C(C(=O)Nc2cccc[n+]2CCO)=C([O-])c2ccccc2S1(=O)=O [Product of Example 1C, N-[1-(2-hydroxyethyl)-2-pyridinium]-2-methyl-2H-1,2-benzothiazine-3-carboxamide 1,1-dioxide 4-enolate]		16	
Cc1cccc(NC(=O)C2=C(OCCO)c3ccccc3S(=O)(=O)N2C)n1 [Product of Example 5, 4-(2-hydroxyethyloxy)-2-methyl-N-(6-methyl-2-pyridinyl)-2H-1,2-benzothiazine-3-carboxamide 1,1-dioxide]		13	
